The source of these data is the supplement of paper PMC10290057.

For assay [1], the system named is HCT116. In words: efficacy (fitted maximal change in viability relative to DMSO control); higher = less cytotoxic (negative = loss of viability). The conditions noted are these: 48 h.
In assay [2] the test system is HCT116. The assay is described as follows: AC50 cell viability (CellTiter-Glo); higher = less potent. The conditions noted are these: 48 h. Background: ATP-based viability assays read luminescence as a measure of living cells.
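Wherever AC50 cell viability (CellTiter-Glo) is given: HCT116 colorectal carcinoma cells screened at five concentrations per compound, luminescent viability scaled between DMSO wells and empty wells on each plate, curves fitted per compound.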
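Wherever efficacy (fitted maximal change in viability relative to DMSO control) is given: Luminescence-based viability readout, five doses per compound, normalized against on-plate DMSO and empty-well controls, followed by dose-response curve fitting for every drug.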

As to `COc1cc([S+](C)(=O)[O-])ccc1Nc1nc2ccc(-c3ccc(NC(=O)[C@H](C)c4ccc(F)cc4)cc3)cn2n1`, the efficacy in the assay with HCT116 [1] is -30.6%. In the assay on HCT116 [2], this compound displayed an AC50 cell viability of 0.132 µM.
In the same order, the values of `COc1cc2ncn(-c3cc(OCc4ccccc4C(F)(F)F)c(C(N)=O)s3)c2cc1OC` are -78.4% and 0.934 µM.
In the same order, the values of `COc1ccc(CNC(=O)Nc2ncc([N+](=O)[O-])s2)cc1` are -96.6% and 20.9 µM.
In the same order, the values of `COc1ccc(N(C(=O)Oc2c(C)cccc2C)c2ccnc(Nc3ccc(N4CCN(C)CC4)cc3)n2)c(OC)c1` are -41% and 0.661 µM.
For `COC1=CC=CC(=C1N)\C2=C\C(=O)C3=C(O2)C=CC=C3`, in the assay on HCT116 [1], the efficacy was -52.9%. The compound further came in with an AC50 cell viability in the assay with HCT116 [2] of 16.6 µM.
In the same order, the values of `CO[C@@H](C)Cn1c(=O)n(C)c2cnc3ccc(-c4cncc(C(C)(C)O)c4)cc3c21` are -82.3% and 1.05 µM.
In the same order, the values of `C[C@@H](N)c1ccc(C(=O)Nc2ccnc3[nH]ccc23)cc1` are -62.4% and 4.68 µM.
In the same order, the values of `Cc1cccc(CC(=O)N2CCc3c2ccc(-c2cn(C)c4ncnc(N)c24)c3F)n1` are -43.2% and 0.661 µM.
As to `Cc1cc(C(=O)Nc2cc(Nc3ccc4c(/C=C/c5ccccn5)[nH]nc4c3)ccc2F)n(C)n1`, the efficacy with HCT116 [1] was -99.1%. Also, in the assay with HCT116 [2], the AC50 cell viability amounted to 10.5 µM.
`Cn1ncc(Cl)c1-c1cc(C(=O)N[C@H](CN)Cc2ccc(F)c(F)c2)sc1Cl`: in the assay with HCT116 [1], the efficacy is -116%. Also, the AC50 cell viability with HCT116 [2] came out at 16.6 µM.
In the same order, the values of `Cn1nccc1Nc1nccc(-c2cc3c(s2)C(C)(C)N(CCN2CCOCC2)C3=O)n1` are -57.4% and 0.525 µM.
In the case of `Cc1nnn(C)c1-c1cnc2c3ccc(C(C)(C)O)cc3n([C@H](c3ccccc3)C3CCOCC3)c2c1`, the efficacy in the assay on HCT116 [1] was -82.9%. Also, the AC50 cell viability in the assay on HCT116 [2] was determined as 0.0186 µM.
In the same order, the values of `C[S+](=O)([O-])c1cccc(CNc2nc(Nc3ccc4c(c3)CCC(=O)N4)ncc2C(F)(F)F)c1` are -71.5% and 5.9 µM.
In the same order, the values of `O=C(NCc1ccncc1)C12C[C@H]3C[C@@H](C1)CC(c1ccc(Cl)cc1)(C3)C2` are -52.9% and 20.9 µM.
In the same order, the values of `FC1=CC2=C3[N](CCN(CC3=C1)C(=O)N4CCCCC4)C=C2C/5=C(C(=O)NC5=O)\C6=CN=C7C=CC=C[N]67` are -108% and 11.8 µM.
On to `O=C(c1ccc(F)cc1)N1CCC[C@H](c2nc(-c3ccc(F)cc3)no2)C1`, for which the efficacy in the assay with HCT116 [1] was -35.7%. In the assay with HCT116 [2], this compound registered an AC50 cell viability of 14.8 µM.
In the same order, the values of `NC(=O)c1ccc2nc(-c3ccc(C4(N)CCC4)cc3)c(-c3ccccc3)n2n1` are -103% and 20.9 µM.
In the same order, the values of `C=CC(=O)N1CCC[C@@H](n2nc(-c3ccc(Oc4ccccc4)cc3)c3c(N)ncnc32)C1` are -90.8% and 16.6 µM.
In the same order, the values of `Nc1nc(NCCNc2ncc(-n3ccnc3)c(-c3ccc(Cl)cc3Cl)n2)ccc1[N+](=O)[O-]` are -32% and 2.09 µM.
For `N#Cc1ccc(COC[C@H]2O[C@@H](n3c(NCc4ccc(Cl)c(Cl)c4)nc4c(N)ncnc43)[C@H](O)[C@@H]2O)cc1`, in the assay with HCT116 [1], the efficacy is -99.6%. Moreover, in the assay with HCT116 [2], the AC50 cell viability was 16.6 µM.
In the same order, the values of `NCC(=O)Nc1ccc(-n2nc(C(F)(F)F)cc2-c2ccc3c(ccc4ccccc43)c2)cc1` are -124% and 13.2 µM.
In the same order, the values of `NC(=O)c1cnc(N[C@@H]2CCCC[C@@H]2N)nc1Nc1cccc(-n2nccn2)c1` are -90.7% and 10.5 µM.
In the same order, the values of `O=C(Nc1ccc2[nH]nc(-c3ccncc3)c2c1)[C@@H]1CCN(CC(=O)N2CCN(c3ccc(-c4ncccn4)cc3)CC2)C1` are -64.3% and 0.295 µM.
Take `OC1=C(Cl)C=C(N\C2=C(\C(=O)NC2=O)C3=C(C=CC=C3)[N+]([O-])=O)C=C1`: the efficacy in the assay with HCT116 [1] was -54.8%. In the assay on HCT116 [2], this compound gave an AC50 cell viability of 20.9 µM.
In the same order, the values of `O=C(NOCC(O)CO)c1cc(Br)c(F)c(F)c1Nc1ccc(I)cc1F` (stereo unspecified) are -69.5% and 0.934 µM.
In the same order, the values of `OCCCNc1cc(-c2ccnc(Nc3cccc(Cl)c3)n2)ccn1` are -58.5% and 0.059 µM.
In the same order, the values of `O=[N+]([O-])c1ccc(Nc2ccccc2-c2ccccc2)c2nonc12` are -90.7% and 16.6 µM.
As to `O=C1c2ccccc2-c2n[nH]c3cccc1c23`, the efficacy in the assay with HCT116 [1] is -63.8%. Further, the AC50 cell viability with HCT116 [2] came to 13.2 µM.
